Measurements published in patent publication US20240051914A1, “THE HEXADECANE TROMETHAMINE COMPOUND, ITS SYNTHESIS METHOD AND ITS APPLICATION IN ANTITUMOR AND ANTIFUNGAL ASPECTS” (Wuxi No.2 People's Hospital, priority 2021, published 2024).
≈ marks a conversion by molar mass, not a printed value.

Experiments:
Format in all cases: cell-based
AGS = experiment: Antitumor function detection, CCK-8 inhibition ratio; conditions: AGS cells, 72 hours
Protocol: (§1) Test Method: The logarithmic phase cells were seeded in 96-well plates with 3,000 cells per well/100 μl of density. After the cells were adhered, 100 μl of the test compounds with different concentrations were added. Design 6-8 concentration gradients. Set five parallel wells in per group and set the control group. After the compound and tumor cells were incubated for 72 hours, 10 μl of CCK-8 solution was added in per well. After the cells were incubated for 1-2 hours in the incubator, the optical density (OD) of per well was counted by Universal Microplate Spectrophotometer to calculate the inhibition ratio: inhibition ratio (IR %)=(1−TOD/COD)×100%, TOD: the mean OD of drug administration group, COD: the mean OD of solvent control. The dose-response curve was plotted in accordance to the drugs with different concentrations and the inhibition ratio of cells to obtain the Inhibitory concentration of drug (IC50). Test Method: The logarithmic phase cells were seeded in 96-well plates with 3,000 cells per well/100 l of density. After the cells were adhered, 100 l of the test compounds with different concentrations were added. Design 6-8 concentration gradients. Set five parallel wells in each group and set the control group. After the compound and tumor cells were incubated for 72 hours, 10 µl of CCK-8 solution was added in each well. After the cells were incubated for 1-2 hours in the incubator, the optical density (OD) of per well was counted by Universal Microplate Spectrophotometer to calculate the inhibition ratio: inhibition ratio (IR %)=(1−TOD/COD)×100%, TOD: the mean OD of drug administration group, COD: the mean OD of solvent control. The dose-response curve was plotted in accordance to the drugs with different concentrations and the inhibition ratio of cells to obtain the Inhibitory concentration of drug (IC50). Test Method: The logarithmic phase cells were seeded in 96-well plates with 3,000 cells per well/100 μl of density. After the cells were adhered, 100 μl of the test compounds with different concentrations were added. Design 6-8 concentration gradients. Set five parallel wells in each group and set the control group. After the compound and tumor cells were incubated for 72 hours, 10 µl of CCK-8 solution was added in each well. After the cells were incubated for 1-2 hours in the incubator, the optical density (OD) of per well was counted by Universal Microplate Spectrophotometer to calculate the inhibition ratio: inhibition ratio (IR %)=(1−TOD/COD)×100%, TOD: the mean OD of drug administration group, COD: the mean OD of solvent control. The dose-response curve was plotted in accordance to the drugs with different concentrations and the inhibition ratio of cells to obtain the Inhibitory concentration of drug (IC50). Test Method: The logarithmic phase cells were seeded in 96-well plates with 3,000 cells per well/100 μl of density. After the cells were adhered, 100 μl of the test compounds with different concentrations were added. Design 6-8 concentration gradients. Set five parallel wells in each group and set the control group. After the compound and tumor cells were incubated for 72 hours, 10 µl of CCK-8 solution was added in each well. After the cells were incubated for 1-2 hours in the incubator, the optical density (OD) of per well was counted by Universal Microplate Spectrophotometer to calculate the inhibition ratio: inhibition ratio (IR %)=(1−TOD/COD)×100%, TOD: the mean OD of drug administration group, COD: the mean OD of solvent control. The dose-response curve was plotted in accordance to the drugs with different concentrations and the inhibition ratio of cells to obtain the Inhibitory concentration of drug (IC50).

MKN-45 = experiment: as above; conditions: MKN-45 cells, 72 hours
Protocol: as §1

SGC-7901 = experiment: as above; conditions: SGC-7901 cells, 72 hours
Protocol: as §1

[1] = tested on: gastric cancer cell HGC-27; experiment: as above; conditions: HGC-27 cells; for The inhibition ratio (%): 72 hours, CCK-8
Protocol: as §1

Candida glabrata 337348 = experiment: Anti-fungal function detection, MIC by dilution in RPMI1640; conditions: for MIC: Nakaseomyces glabratus, 337348, Standard fungal strain Candida glabrata 337348, incubated for 35 and 24 h, read-out: Minimum Inhibitory Concentration, MIC
Protocol: (§2) Test Method: The hexadecyl tromethamine hydrochloride salt solution was semi-diluted to five concentration gradients (100 μg/ml, 50 μg/ml, 25 μg/ml, 12.5 μg/ml and 6.25 μg/ml) by RPMI1640 fluid nutrient medium. 100 μl of every gradient solution was added in the 96-well plate for standby application. Standard fungal strain and clinical drug-resistant fungal strain in table 2 were chosen as the experimental fungus. The activation of the experimental fungus was obtained through that the experimental fungus were cultivated for 48 h at 30° C. The activated experimental fungus was matched to fungal suspension. Count and adjust the concentration using blood counting chamber. The moderate fungal suspension were added into RPMI1640 fluid nutrient medium to 0.5-2.5×10^3 cfμ/ml of final working concentration. 100 μl of above fungal suspension was added into the above 96-well plate with the hexadecyl tromethamine hydrochloride salt solution. Two parallel wells were set for each concentration gradient compound of each strain. Blank medium and blank medium with fungal solution were set as control simultaneously.
as §2, with “tromethamine” for “tromethamine hydrochloride salt”
as §2, with “phosphate” for “hydrochloride salt”, “µg/ml)” for “μg/ml)”
(§3) 2. The Anti-Fungal Function Detection of the Hexadecyl Tromethamine Benzene Sulfonate Test Method: The hexadecyl tromethamine benzene sulfonate solution was semi-diluted to five concentration gradients (100 μg/ml, 50 μg/ml, 25 μg/ml, 12.5 μg/ml and 6.25 µg/ml) by RPMI1640 fluid nutrient medium. 100 μl of every gradient solution was added in the 96-well plate for standby application. Standard fungal strain and clinical drug-resistant fungal strain in table 2 were chosen as the experimental fungus. The activation of the experimental fungus was obtained through that the experimental fungus were cultivated for 48 h at 30° C. The activated experimental fungus was matched to fungal suspension. […]

Candida krusei 185429 = experiment: as above; conditions: Pichia kudriavzevii, Standard fungal strain Candida krusei 185429, incubated for 35 and 24 h, read-out: Minimum Inhibitory Concentration, MIC
Protocol: as §2
as §2, with “tromethamine” for “tromethamine hydrochloride salt”
as §2, with “phosphate” for “hydrochloride salt”, “µg/ml)” for “μg/ml)”
as §3

[2] = tested on: Candida lusitaniae 340928; experiment: as above; conditions: Clavispora lusitaniae, Standard fungal strain Candida lusitaniae 340928, incubated for 35 and 24 h, read-out: Minimum Inhibitory Concentration, MIC
Protocol: as §2
as §2, with “tromethamine” for “tromethamine hydrochloride salt”
as §2, with “phosphate” for “hydrochloride salt”, “µg/ml)” for “μg/ml)”
as §3

[3] = tested on: Candida parapsilosis 191344; experiment: as above; conditions: for MIC: Lodderomyces parapsilosis, 191344, Clinical drug-resistant fungal strain Candida parapsilosis 191344, incubated for 35 and 24 h, read-out: Minimum Inhibitory Concentration, MIC
Protocol: as §2
as §2, with “tromethamine” for “tromethamine hydrochloride salt”
as §2, with “phosphate” for “hydrochloride salt”, “µg/ml)” for “μg/ml)”
as §3

[4] = tested on: Candida tropicalis 191327; experiment: as above; conditions: Clinical drug-resistant fungal strain Candida tropicalis 191327, incubated for 35 and 24 h, read-out: Minimum Inhibitory Concentration, MIC
Protocol: as §2
as §2, with “tromethamine” for “tromethamine hydrochloride salt”
as §2, with “phosphate” for “hydrochloride salt”, “µg/ml)” for “μg/ml)”
as §3

[5] = tested on: Candida tropicalis 191529; experiment: as above; conditions: Clinical drug-resistant fungal strain Candida tropicalis 191529, incubated for 35 and 24 h, read-out: Minimum Inhibitory Concentration, MIC
Protocol: as §2
as §2, with “tromethamine” for “tromethamine hydrochloride salt”
as §2, with “phosphate” for “hydrochloride salt”, “µg/ml)” for “μg/ml)”
as §3

| Structure (SMILES) | The inhibition ratio (%) (AGS; 2 μM) | The inhibition ratio (%) (AGS; 20 μM) | The inhibition ratio (%) (MKN-45; 2 μM) | The inhibition ratio (%) (MKN-45; 20 μM) | The inhibition ratio (%) (SGC-7901; 2 μM) | The inhibition ratio (%) (SGC-7901; 20 μM) | The inhibition ratio (%) ([1]; 2 μM) | The inhibition ratio (%) ([1]; 20 μM) | MIC (Candida glabrata 337348) | MIC (Candida krusei 185429) | MIC [2] | MIC [3] | MIC [4] | MIC [5] | further results |
| --- | --- | --- | --- | --- | --- | --- | --- | --- | --- | --- | --- | --- | --- | --- | --- |
| CCCCCCCCCCCCCCCCNC(CO)(CO)CO.Cl [2-(hexadecylamino)-2-(hydroxymethyl) propane-1,3-diol hydrochloride] | 42% | 99% | 31% | 99% | 21% | 100% | 72% | 101% | 25 µg/mL | 50 µg/mL | 25 µg/mL | 25 µg/mL | 25 µg/mL | 25 µg/mL | inhibitory effect (level reached on the inhibition curve, FIG. 3) ([1]; rises rapidly when the logarithmic value of compound concentration reached 3 nM): 100% |
| CCCCCCCCCCCCCCCCNC(CO)(CO)CO.O=S(=O)(O)c1ccccc1 [hexadecyl tromethamine benzene sulfonate] | 38% | 95% | 34% | 100% | 23% | 98% | 62% | 96% | 25 µg/mL | 100 µg/mL | 25 µg/mL | 50 µg/mL | 50 µg/mL | 50 µg/mL | – |
| CCCCCCCCCCCCCCCCNC(CO)(CO)CO [hexadecyl tromethamine phosphate] | – | – | – | – | – | – | – | – | – | – | – | – | – | – | The inhibition ratio (%) (AGS; 2 μM, phosphate): 44%; The inhibition ratio (%) (AGS; 20 μM, phosphate): 100%; The inhibition ratio (%) (MKN-45; 2 μM, phosphate): 29%; The inhibition ratio (%) (MKN-45; 20 μM, phosphate): 97%; The inhibition ratio (%) (SGC-7901; 2 μM, phosphate): 25%; The inhibition ratio (%) (SGC-7901; 20 μM, phosphate): 101%; The inhibition ratio (%) ([1]; 2 μM, phosphate): 68%; The inhibition ratio (%) ([1]; 20 μM, phosphate): 99%; Minimum Inhibitory Concentration, MIC (Candida glabrata 337348; Standard fungal strain Candida glabrata 337348, incubated for 35 and 24 h, phosphate): 50 µg/mL; Minimum Inhibitory Concentration, MIC ([3]; Clinical drug-resistant fungal strain Candida parapsilosis 191344, incubated for 35 and 24 h, phosphate): 50 µg/mL |
| CCCCCCCCCCCCCCCCNC(CO)(CO)CO [hexadecyl tromethamine] | 43% | 99% | 32% | 98% | 24% | 102% | 72% | 100% | 25 µg/mL (≈ 72.3 µM) | 50 µg/mL (≈ 145 µM) | 25 µg/mL (≈ 72.3 µM) | 25 µg/mL (≈ 72.3 µM) | 25 µg/mL (≈ 72.3 µM) | 25 µg/mL (≈ 72.3 µM) | – |
